Experimental data as given in patent US8927577B2, “Quinolinyl glucagon receptor modulators” (Pfizer Inc., priority 2011, dated 2015).
Where a name gives a salt, the structure may show the parent alone.

Key:
[1] = molecular target: T1, human glucagon receptor (Homo sapiens (Human), UniProt P47871); assay: Human Glucagon SPA Assay; details: membrane from chem-1 cells stably transfected with the human glucagon receptor; 125 pM [125I]Glucagon-Cex; Ki by Cheng-Prusoff equation; read-out: Binding Ki
Experimental: The Glucagon SPA assay is used to determine the ability of test compounds to block the binding of glucagon-cex to the glucagon receptor. Test compounds are re-suspended and serially diluted in 100% DMSO. 1 ul of test compound at the desired concentrations is spotted into the appropriate wells of 96 well low binding white clear bottom plate (Corning). 1 ul of DMSO is spotted into total binding wells. 1 ul of a known glucagon antagonist at a concentration of 20 uM is added to non specific binding wells. […] All assay ingredients with the exception of test compounds are re-suspended in the following buffer; 50 mM Hepes pH 7.4; 5 mM MgCl2; 1 mM CaCl; 5% glycerol and 0.2% BSA. Following a 6-10 hr incubation at room temperature the amount of hot ligand bound to the cell membranes is determined by reading the plates on a Wallac Trilux radioactive emission detector. Data is analyzed using Pfizer's Data analysis program. IC50 values are then determined from the generated sigmoidal dose response curves. Ki values are calculated using Cheng-Prusoff equation.

[2] = molecular target: T1, human glucagon receptor; assay: Glucagon cAMP Assay; assay type: cell-based; details: CHOK1 cells stably transfected with the human glucagon receptor; 100 pM glucagon challenge; Kb from IC50 by modified Cheng-Prusoff equation
Experimental: The Cisbio cAMP detection assay is used to determine the ability of punitive glucagon antagonist to block glucagon induced cAMP production. Potential glucagon antagonists are re-suspended and diluted in 100% DMSO. Prior to use in the Glucagon cAMP assay 100×DMSO compound stocks are diluted 20× with DMEM-F12 media (Invitogen) containing either 0.1% or 4% BSA. 2 uls of 5× compound stocks are spotted into the appropriate wells of low binding white solid bottom 384 well plates (Corning). 2 uls of 5% DMSO or known glucagon antagonist are added to each plate to define the assay window. CHOK1 cells stably transfected with the human glucagon receptor are removed from culture flasks with cell dissociation buffer. Cell pellets are re-suspended, at a concentration of 8.3e^5 cells/ml in DMEM-F12 with or without 4% BSA and 200 uM IBMX. 6 uls of cell suspensions are added to the assay plates. Plates are incubated for 20 min at room temperature prior to the addition of a 100 pM challenge dose of glucagon. On a separate plate glucagon dose response curves are run to determine the EC50 of glucagon. After a 30 min room temperature incubation the reaction is terminated by the addition of lysis buffer containing the cAMP detection reagents. Plates are incubated for an additional 60 min at room temperature prior to being read on the Perkin Elmer fluorescent plate reader. Raw is converted to nM of cAMP produced based on a cAMP standard curve. Converted data is then analyzed using the Pfizer data analysis program. IC50 values are determined from the generated sigmoidal dose response curves. Kb values are the calculated using a modified Cheng-Prusoff equation.

T1 sequence (P47871 26-477): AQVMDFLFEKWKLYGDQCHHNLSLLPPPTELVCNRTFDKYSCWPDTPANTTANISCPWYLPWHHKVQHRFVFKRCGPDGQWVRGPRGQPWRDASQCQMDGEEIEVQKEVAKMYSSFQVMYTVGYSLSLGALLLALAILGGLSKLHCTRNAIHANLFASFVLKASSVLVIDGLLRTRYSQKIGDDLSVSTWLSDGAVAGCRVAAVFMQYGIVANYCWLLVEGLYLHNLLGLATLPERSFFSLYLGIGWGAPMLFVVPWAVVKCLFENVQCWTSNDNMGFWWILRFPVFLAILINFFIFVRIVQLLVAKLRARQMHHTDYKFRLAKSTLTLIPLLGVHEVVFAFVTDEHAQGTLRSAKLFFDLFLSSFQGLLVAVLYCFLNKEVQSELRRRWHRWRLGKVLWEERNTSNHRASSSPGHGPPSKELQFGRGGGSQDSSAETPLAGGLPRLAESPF

Row | Structure (SMILES) | Ki [1] | Kb [2]
1 | Cc1cc2cc(F)ccc2nc1NC(c1ccc(C(=O)NCCC(=O)O)cc1)C1CC(C)(C)C1 (single isomer, unassigned; isomer 2) [Example 35, 3-{4-[(3,3-dimethyl-cyclobutyl)-(6-fluoro-3-methyl-quinolin-2-ylamino)-methyl]-benzoylamino}-propionic acid, isomer 2] | 14 nM | 33 nM
2 | Cc1cc2cc(F)ccc2nc1NC(c1ccc(C(=O)NCCC(=O)O)cc1)C1CC(C)(C)C1 (racemic) [Example 20, (+/−)-3-{4-[(3,3-dimethyl-cyclobutyl)-(6-fluoro-3-methyl-quinolin-2-ylamino)-methyl]-benzoylamino}-propionic acid] | 39 nM | 64 nM
3 | CC(C)CC(Nc1cc2ccccc2cn1)c1ccc(C(=O)NCCC(=O)O)cc1 (racemic) [Example 9, (+/−)-3-{4-[1-(isoquinolin-3-ylamino)-3-methyl-butyl]-benzoylamino}-propionic acid trifluoroacetate] | 531 nM | 450 nM
4 | Cc1nc2ccccc2nc1NC(CC(C)C)c1ccc(C(=O)NCCC(=O)O)cc1 (racemic) [Example 8, (+/−)-3-{4-[3-methyl-1-(3-methyl-quinoxalin-2-ylamino)-butyl]-benzoylamino}-propionic acid] | 979 nM | 1000 nM
